Measured values from patent publication US8329645B2, “Polymyxin derivatives and uses thereof” (priority 2008, dated 2012).

Tests used:
E. coli IH3080 [1] = assay: Growth inhibition around wells on LB agar plates; type: cell-based, Escherichia coli
In short: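 Growth inhibition of encapsulated E. coli IH3080 (K1:O018) was assessed on LB agar plates. A suspension of about 10^8 cells/ml in 0.9% NaCl, made from an overnight LB agar culture, was spread across the plate surface and the excess removed. After drying, 2 mm wells were drilled, with 0.9% NaCl as control. Following 18 h at 37° C., inhibition zone diameters around wells were converted to areas in square mm.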

[2] = tested on: Pseudomonas aeruginosa ATCC 27853; assay: Growth inhibition around wells on LB agar plates; type: cell-based; conditions: Ps. aeruginosa ATCC 27853
In short: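 Activity against Pseudomonas aeruginosa ATCC 27853 was assessed by agar well diffusion on LB plates. A suspension of about 10^8 cells/ml in 0.9% NaCl was spread over the agar and the excess removed. Once the surface had dried, 2 mm wells were drilled and filled with peptide dissolved in 0.9% NaCl. Plates were incubated 18 h at 37° C, and inhibition zone diameters were converted to areas in square mm.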

E. coli IH3080 [3] = assay: Sensitization to rifampin: growth inhibition around wells on LB plates containing rifampin; type: cell-based, Escherichia coli; conditions: 4 μg of compound
[4] = tested on: Ps. aeruginosa ATCC 27853; assay: as above; type: cell-based, Pseudomonas aeruginosa; conditions: 4 μg
E. coli = conditions: Sakura et al. (2004); cited from earlier work

octanoyl polymyxin B heptapeptide [Octanoyl PMBH, reference compound]
growth inhibition around a well (E. coli IH3080 [1]; 4 μg of compound per well): 0 square millimeters | growth inhibition around a well (E. coli IH3080 [1]; 10 μg of compound per well): 0 square millimeters | growth inhibition around a well ([2]; 4 μg): 0 square millimeters | growth inhibition around a well ([2]; 10 μg): 13 square millimeters | growth inhibition around a well in the presence of rifampin (E. coli IH3080 [3]; rifampin 0 μg/ml): 0 square millimeters | growth inhibition around a well in the presence of rifampin (E. coli IH3080 [3]; rifampin 0.1 μg/ml): 0 square millimeters | growth inhibition around a well in the presence of rifampin (E. coli IH3080 [3]; rifampin 1.0 μg/ml): 38 square millimeters | growth inhibition around a well in the presence of rifampin ([4]; rifampin 0 μg/ml): 0 square millimeters | growth inhibition around a well in the presence of rifampin ([4]; rifampin 0.1 μg/ml): 13 square millimeters | growth inhibition around a well in the presence of rifampin ([4]; rifampin 0.3 μg/ml): 13 square millimeters | concentration needed to inhibit the growth of bacteria (E. coli): 128 µg/mL
